# How the values were obtained:
# Test in all cases: product identification by GC-QToF
# Type in all cases: biochemical
# [1] = molecular target: T1, KaGerS (AHH94051.1) (Kutzneria viridogrisea, UniProt W5W0G4); conditions: 75 uM FPP, 5 mM MgCl2, 25 mM Tris-HCl pH 7.8, 28 C overnight; products germacradienol and germacrene D
# T1 construct: gene KALB_676; codon-optimised, pETM11, N-terminal His-tag (TEV cleavable), E. coli, Ni-NTA purified
# Text: product identification by GC-QToF on KaGerS (AHH94051.1) | we tested its functionality with FPP in in vitro conditions. This yielded germacradienol and germacrene D
# [2] = molecular target: T2, MiGerS (ADU09376.1), germacatriene synthase (Micromonospora aurantiaca (nom. illeg.), UniProt A0ABQ6UH67); conditions: 75 uM FPP, 5 mM MgCl2, 25 mM Tris-HCl pH 7.8, 28 C overnight; products germacrene A (seen as beta-elemene) and 1(10),4,11-germacratriene
# T2 construct: gene F6X54_13130; codon-optimised, pETM11, N-terminal His-tag (TEV cleavable), E. coli, Ni-NTA purified
# T2 sequence (A0ABQ6UH67 entry or part of it): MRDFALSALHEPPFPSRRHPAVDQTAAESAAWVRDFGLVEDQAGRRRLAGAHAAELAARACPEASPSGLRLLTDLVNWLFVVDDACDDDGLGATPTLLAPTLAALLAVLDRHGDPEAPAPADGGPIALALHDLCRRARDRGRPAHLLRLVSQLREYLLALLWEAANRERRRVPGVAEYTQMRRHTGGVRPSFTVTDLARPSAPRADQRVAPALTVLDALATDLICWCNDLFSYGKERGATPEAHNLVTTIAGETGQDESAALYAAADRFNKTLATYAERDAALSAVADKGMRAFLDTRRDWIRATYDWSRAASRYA
# [3] = molecular target: T3, ScAroS (KYF56472.1), aromandendrene synthase (Sorangium cellulosum, UniProt Z9C2K8JLD0); conditions: 75 uM FPP, 5 mM MgCl2, 25 mM Tris-HCl pH 7.8, 28 C overnight; product aromadendrene
# T3 construct: codon-optimised, pETM11, N-terminal His-tag (TEV cleavable), E. coli, Ni-NTA purified
# T3 sequence (Z9C2K8JLD0 1-329): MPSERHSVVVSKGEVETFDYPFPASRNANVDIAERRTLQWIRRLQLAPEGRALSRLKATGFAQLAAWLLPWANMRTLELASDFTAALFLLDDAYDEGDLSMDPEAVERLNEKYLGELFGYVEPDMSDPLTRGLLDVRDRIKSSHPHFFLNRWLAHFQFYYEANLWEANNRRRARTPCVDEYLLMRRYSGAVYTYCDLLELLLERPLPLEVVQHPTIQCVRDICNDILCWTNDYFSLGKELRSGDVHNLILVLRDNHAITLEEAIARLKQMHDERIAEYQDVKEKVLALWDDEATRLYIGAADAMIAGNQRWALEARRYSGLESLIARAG
# [4] = molecular target: T4, RrBerS (AHY45426.1) (Rubrobacter radiotolerans, UniProt A0A023WZP4); conditions: 5 mM MgCl2, 25 mM Tris-HCl pH 7.8, 28 C overnight
# T4 construct: gene RradSPS_0143; codon-optimised, pETM11, N-terminal His-tag (TEV cleavable), E. coli, Ni-NTA purified
# T4 sequence (A0A023WZP4 1-348): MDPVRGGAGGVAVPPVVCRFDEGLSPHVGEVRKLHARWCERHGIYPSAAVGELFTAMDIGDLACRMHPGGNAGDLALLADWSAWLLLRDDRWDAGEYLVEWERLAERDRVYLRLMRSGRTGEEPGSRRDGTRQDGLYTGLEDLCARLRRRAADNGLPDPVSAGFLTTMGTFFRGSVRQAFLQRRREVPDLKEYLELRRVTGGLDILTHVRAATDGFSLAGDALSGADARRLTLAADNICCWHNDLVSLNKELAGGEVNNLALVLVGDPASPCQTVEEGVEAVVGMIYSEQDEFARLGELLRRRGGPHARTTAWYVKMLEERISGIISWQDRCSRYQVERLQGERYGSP
# [5] = molecular target: T5, RrNerS (AHY47823.1), linalool/nerolidol synthase (Rubrobacter radiotolerans, UniProt A0A023X648); conditions: 5 mM MgCl2, 25 mM Tris-HCl pH 7.8, 28 C overnight
# T5 construct: gene RradSPS_2540; codon-optimised, pETM11, N-terminal His-tag (TEV cleavable), E. coli, Ni-NTA purified
# T5 sequence (A0A023X648 1-315): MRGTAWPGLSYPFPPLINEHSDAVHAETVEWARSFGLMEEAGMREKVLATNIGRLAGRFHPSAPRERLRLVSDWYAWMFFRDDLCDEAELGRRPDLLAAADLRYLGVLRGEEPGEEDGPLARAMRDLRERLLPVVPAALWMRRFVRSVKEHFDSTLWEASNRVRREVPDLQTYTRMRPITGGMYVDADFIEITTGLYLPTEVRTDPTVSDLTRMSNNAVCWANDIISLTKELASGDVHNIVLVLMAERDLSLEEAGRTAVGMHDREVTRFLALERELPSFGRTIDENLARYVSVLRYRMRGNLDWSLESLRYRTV
# [6] = molecular target: T6, ScEpiS (CAN96536.1), 10-epi-cubebol synthase (Sorangium cellulosum, UniProt A9GK58); conditions: 5 mM MgCl2, 25 mM Tris-HCl pH 7.8, 28 C overnight
# T6 construct: gene sce6369; codon-optimised, pETM11, N-terminal His-tag (TEV cleavable), E. coli, Ni-NTA purified
# T6 sequence (A9GK58 1-315): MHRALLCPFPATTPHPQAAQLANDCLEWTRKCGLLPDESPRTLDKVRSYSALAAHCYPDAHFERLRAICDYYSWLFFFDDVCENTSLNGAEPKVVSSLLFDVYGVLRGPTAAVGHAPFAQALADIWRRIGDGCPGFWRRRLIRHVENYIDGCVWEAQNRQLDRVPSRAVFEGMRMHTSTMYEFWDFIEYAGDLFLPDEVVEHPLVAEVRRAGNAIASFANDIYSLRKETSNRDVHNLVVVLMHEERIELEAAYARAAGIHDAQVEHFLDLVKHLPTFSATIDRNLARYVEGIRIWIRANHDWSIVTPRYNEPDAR
# [7] = molecular target: T7, ScGeoS, geosmin synthase (CAB41566.1) (Streptomyces coelicolor, UniProt Q9X839); conditions: 75 uM FPP, 5 mM MgCl2, 25 mM Tris-HCl pH 7.8, 28 C overnight; products geosmin, germacradienol, germacrene D; positive control
# T7 construct: gene cyc2; bi-domain enzyme, recombinant, purified; pETM11 N-terminal His-tag
# T7 sequence (Q9X839 whole entry): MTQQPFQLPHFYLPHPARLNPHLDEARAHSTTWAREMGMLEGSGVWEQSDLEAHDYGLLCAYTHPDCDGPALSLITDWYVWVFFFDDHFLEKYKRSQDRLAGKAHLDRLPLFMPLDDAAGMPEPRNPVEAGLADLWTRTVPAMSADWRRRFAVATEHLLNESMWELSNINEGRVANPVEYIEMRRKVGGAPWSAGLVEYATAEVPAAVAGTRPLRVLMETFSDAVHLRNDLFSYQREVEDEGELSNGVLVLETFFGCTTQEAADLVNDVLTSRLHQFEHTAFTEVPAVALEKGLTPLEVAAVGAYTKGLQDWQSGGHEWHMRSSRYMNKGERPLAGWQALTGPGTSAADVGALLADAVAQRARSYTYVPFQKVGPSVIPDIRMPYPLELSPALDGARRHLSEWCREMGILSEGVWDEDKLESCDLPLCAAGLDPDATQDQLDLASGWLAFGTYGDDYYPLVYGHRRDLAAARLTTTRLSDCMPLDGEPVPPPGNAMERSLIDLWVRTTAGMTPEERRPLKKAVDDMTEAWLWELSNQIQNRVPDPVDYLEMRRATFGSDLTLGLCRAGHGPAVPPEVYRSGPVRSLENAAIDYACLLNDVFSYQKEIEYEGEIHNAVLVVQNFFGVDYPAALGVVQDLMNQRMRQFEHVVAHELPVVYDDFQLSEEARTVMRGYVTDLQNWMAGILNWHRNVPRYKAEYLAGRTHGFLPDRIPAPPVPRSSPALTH
# T1 sequence (W5W0G4 1-363): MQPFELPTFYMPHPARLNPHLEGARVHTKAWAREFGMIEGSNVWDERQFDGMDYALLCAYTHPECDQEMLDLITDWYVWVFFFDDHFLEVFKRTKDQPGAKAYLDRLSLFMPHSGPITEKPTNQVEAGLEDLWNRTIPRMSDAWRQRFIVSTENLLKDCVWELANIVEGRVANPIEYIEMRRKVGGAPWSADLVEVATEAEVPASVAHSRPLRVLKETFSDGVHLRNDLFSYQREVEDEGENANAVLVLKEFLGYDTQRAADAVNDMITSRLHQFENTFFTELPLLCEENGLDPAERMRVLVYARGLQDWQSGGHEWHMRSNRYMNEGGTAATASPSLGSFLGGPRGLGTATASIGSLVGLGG
Compound,product identification by GC-QToF [1],product identification by GC-QToF [2],product identification by GC-QToF [3],"product identification by GC-QToF ([4]; 75 uM FPP, product alpha-bergamotene)","product identification by GC-QToF ([5]; 75 uM FPP, product trans-nerolidol)","product identification by GC-QToF ([6]; 75 uM FPP, products 10-epi-cubebol and others)",product identification by GC-QToF [7],"product identification by GC-QToF ([4]; 100 uM GPP, product linalool)","product identification by GC-QToF ([5]; 100 uM GPP, products R- and S-linalool)","product identification by GC-QToF ([6]; 100 uM GPP, products cis/trans-beta-ocimene and linalool)"
CC(C)=CCC/C(C)=C/CC/C(C)=C/COP(=O)(O)OP(=O)(O)O [FPP],we tested its functionality with FPP in in vitro conditions. This yielded germacradienol and germacrene D,"incubated with FPP yielded β-elemene, and 8-isopropenyl-1,5-dimethyl-1,5-cyclodecadiene",converted FPP into only aromadendrene in in vitro analysis,"also showed activity with both FPP and GPP, yielding α-bergamotene",with FPP yielded a single product that was identified as trans-nerolidol by GC–QToF analysis,When ScEpiS was incubated with FPP the products obtained were 10-epi-α-cubinene,"purified geosmin synthase yielded the sesquiterpenoids geosmin, germacradienol and germacrene D",–,–,–
CC(C)=CCC/C(C)=C/COP(=O)(O)OP(=O)(O)O [GPP],–,–,–,–,–,–,–,"also showed activity with both FPP and GPP, yielding α-bergamotene",Incubation with GPP yielded both R- and S- linalool isomers,with GPP yielded the monoterpene products cis- and trans-β-ocimene

# From paper PMC7192455, “Exploring novel bacterial terpene synthases” (PLoS ONE, 2020)
